Data on 3 substances can be found in patent publication US5279956A, “Activated protein C polypeptides and anti-peptide antibodies, diagnostic methods and systems for inhibiting activated protein C” (The Scripps Research Institute, priority 1991, dated 1994).

Read-outs that look alike come from different tables or passages of the source. No end group written: not given here.

The target in this assay is T1, APC (Homo sapiens, UniProt P04070).
T1 construct: begins at amino acid residue position 158 and ends at 419; The light chain is 155 amino acid residues in length; tissue Factor IX concentrate from Immuno AG, Vienna; thrombin from Enzyme Research Laboratories
T1 sequence (P04070 212-461): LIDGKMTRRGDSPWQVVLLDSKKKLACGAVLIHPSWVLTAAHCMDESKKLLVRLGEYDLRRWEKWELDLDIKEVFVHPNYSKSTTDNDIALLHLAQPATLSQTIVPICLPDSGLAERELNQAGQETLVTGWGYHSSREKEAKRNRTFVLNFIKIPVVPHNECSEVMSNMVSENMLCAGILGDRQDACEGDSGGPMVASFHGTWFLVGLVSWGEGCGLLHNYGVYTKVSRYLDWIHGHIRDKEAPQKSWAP
T1 sequence (P04070 43-197): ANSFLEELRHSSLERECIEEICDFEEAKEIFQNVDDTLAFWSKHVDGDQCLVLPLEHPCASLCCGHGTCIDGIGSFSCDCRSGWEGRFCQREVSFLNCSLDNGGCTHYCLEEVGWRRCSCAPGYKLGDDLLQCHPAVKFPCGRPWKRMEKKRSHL
The experiment in a line: APC anticoagulant activity, APTT and Xa-1-stage coagulation assays (mean or both). Type of assay: biochemical. To be noted: for IC50: final peptide concentration at which 50% inhibition of APC activity was observed; for inhibition at 500 µM: 500 μM peptide, mean of APTT and Xa-1-stage assays, 0 = no observable effect ± 10%. As to the method: The effect of the synthetic peptides on APC anticoagulant activity were determined using the APTT assay in the presence of either normal citrate anticoagulated plasma (NHP) or protein S depleted plasma (PSDP). The assays were performed essentially as described. See Marlar et al., Blood, 59:1067-1072 […]; Suzuki et al., J. Biol. Chem., 258:163-168 (1983); Gruber et al., Blood, 73:639-642 (1989); Ohlin et al., Biochem., 29:644-651 (1990). NHP was purchased from George King Bio-Medical, Inc. (Overland Park, Kans.). PSDP was prepared from a normal human citrate-anticoagulated plasma pool from ten healthy donors. Protein S was immunodepleted from the NHP by immunoaffinity chromatography of NHP over an anti-protein S antibody column to form PSDP. The anti-protein S antibody column was prepared by coupling 100 mg of a monoclonal, high-affinity, calcium-independent anti-PS antibody, designated S7, to 30 ml of CNBr-activated Sepharose 4B (Pharmacia) as described in Example 2c1).
For the APTT assay, APC was prepared as described in Example 2c2). […] The concentration of the APC used in the assay was initially optimized with respect to the sensitivity of the assay towards APC-induced prolongation of clotting time compared to clotting time without APC.
Once the optimal concentration of APC was determined, peptides from Table 2 were then separately admixed for a final concentration of 500 μM with 10 nM APC in 100 μl of TBS-BSA at pH 7.4 to form peptide-APC admixtures. The resulting admixtures were maintained for seven minutes at 37° C. Separate aliquots of peptides maintained under the same conditions in the absence of APC served as controls for the inhibitory effect of synthetic peptides on APC anticoagulant activity. After the maintenance period, 100 μl of NHP and 100 μl APTT-reagent Thrombosil (Ortho Diagnostics, Raritan, N.J.) were admixed into each peptide admixture and maintained for 200 seconds at 37° C. to form a pre-coagulation admixture. In some experiments, PSDP was used in the place of NHP to determine the effect of Protein S on the assay system. Coagulation was then initiated by the admixture of 100 μl of 30 mM CaCl2 in TBS prewarmed to 37° C. to each of the pre-coagulation admixtures. The time for clot formation was measured by an Electra 700 Automatic Coagulation Timer (Medical Laboratory Automation, Inc., Mount Vernon, N.Y.). Each peptide's effect was determined in duplicate.
The synthetic peptides listed in Table 4 are presented in the same order as listed in Table 2, i.e., are reproduced from Table 2. […] For peptides at a concentration of 500 μM that inhibited at least 50% of APC anticoagulant activity, analysis of dose-response was subsequently conducted. The column in Table 4 labeled "Inhibition of APC" represents the inhibition of APC anticoagulant activity measured with 500 μM peptide.
For testing the inhibition of the synthetic peptides on APC activity described above, Xa-1-stage coagulation assays were also performed as described. See Seegers et al., Thrombosis Res., 13:233-243 (1978); Marlar et al., supra; and Walker et al., J. Biol. Chem. 265:1484-1489 (1990).

Where [1] appears, read: final peptide concentration at which 90% inhibition of APC activity was observed, read-out: IC90.

In general, IC90 refers to the concentration at which the effect reaches the 90% level. By IC50 is commonly meant the midpoint of a concentration-inhibition curve. On to “KRNRTFVLNFIKIPV-NH2 [peptide-(311-325), KRNRTFVLNFIKIPV]”, for which the IC90 came to 50 µM and half-maximal inhibition (IC50) was put at 20 µM.
The term inhibition denotes the change of the read-out against control, counted positive when it falls. Lower therefore signals a weak effect. In turn, “SGLLHNYGVYTKVSR-NH2 [peptide-(384-398), -SGLLHNYGVYTKVSR]” came in with an inhibition at 500 µM of 60%. Further, under setting [1], the concentration for an effect of 90% (IC90) was over 500 µM.
“YGVYTKVSRYLDWIH-NH2 [peptide-(390-404), YGVYTKVSRYLDWIH]” registered an inhibition at 500 µM of 100% and an IC50 of 5 µM. Besides, under setting [1], the IC90 came out at 40 µM.
